The values below are quoted from earlier work in US20260345609A1, “METHODS FOR PROMOTING PERSISTENCE OF CELL THERAPY” (Legend Biotech Ireland Limited, priority 2022, published 2026).

The conditions of one data set: Short infusion; cited from earlier work.
As for `Nc1ccn([C@@H]2O[C@H](CO)[C@@H](O)C2(F)F)c(=O)n1` [Gemcitabine], the Half-life result is on record as “Short infusion: 32-94 min;”.

Staying with this data set, now noted: human, in vivo; cited from earlier work.
With `Nc1nc(Cl)nc2c1ncn2[C@H]1C[C@H](O)[C@@H](CO)O1` [Cladribine], the Half-life is recorded as 10 h. In the case of `CN(C)/N=N/c1[nH]cnc1C(N)=O` [Dacarbazine], the Half-life is on record as 5 h. As for `COc1cccc2c1C(=O)c1c(O)c3c(c(O)c1C2=O)C[C@@](O)(C(=O)CO)C[C@@H]3O[C@H]1C[C@H](N)[C@H](O)[C@H](C)O1` [Doxorubicin], the Half-life is 1 to 3 h. As to `O=c1[nH]cc(F)c(=O)[nH]1` [Fluorouracil], the Half-life was 0.267 h.

For `N[C@@H]1CCCC[C@H]1N.[Pt+2]` [Oxaliplatin], the Half-life is 0.167 to 0.417 h. For the compound `CC(=O)O[C@H]1C(=O)[C@@]2(C)[C@H]([C@H](OC(=O)c3ccccc3)[C@]3(O)C[C@H](OC(=O)[C@H](O)[C@@H](NC(=O)c4ccccc4)c4ccccc4)C(C)=C1C3(C)C)[C@]1(OC(C)=O)CO[C@@H]1C[C@@H]2O` [Paclitaxel], the Half-life is recorded as 5.8 h. Regarding `O=P1(N(CCCl)CCCl)NCCCO1` (centres unmarked) [cyclophosphamide], the Half-life is 3 to 12 h. For the compound `Nc1nc(F)nc2c1ncn2[C@@H]1O[C@H](CO)[C@@H](O)[C@@H]1O` [fludarabine], the Half-life is on record as 20 h. With `CC[C@]1(O)C[C@H]2CN(CCc3c([nH]c4ccccc34)[C@@](C(=O)OC)(c3cc4c(cc3OC)N(C)[C@H]3[C@@](O)(C(=O)OC)[C@H](OC(C)=O)[C@]5(CC)C=CCN6CC[C@]43[C@@H]65)C2)C1` [vinblastine], the Half-life is recorded as 24.8 h.

The data set is the same for the next values; noted with them: long infusion; cited from earlier work.
On to `Nc1ccn([C@@H]2O[C@H](CO)[C@@H](O)C2(F)F)c(=O)n1` [Gemcitabine], for which the Half-life entry was “long infusion: 245-638 min”.
